The values below come from PMC12027992, “New Amidino-Substituted Benzimidazole Derivatives as Human Dipeptidyl Peptidase III Inhibitors: Synthesis, In Vitro Evaluation, QSAR, and Molecular Docking Studies” (International Journal of Molecular Sciences, 2025).

Where “and” joins values, the source holds several entries; their conditions need not be identical. Equal values may be shown once. Where a name gives a salt, the structure may show the parent alone. Residues, ends and D or L forms follow the SMILES beside them.

One assay concerns the target hDPP III. Also noted: method as in PMID 18163885. The settings on record: read-out: inhibition constant (Ki); cited from earlier work.
The target in another assay is T1, human DPP III (Homo sapiens, UniProt Q9NY33).
T1 construct: C-terminally truncated human DPP III was expressed and purified as described previously; His-tag (TEV-cleavable) (C, cleaved yes); made in house; host or cells: E. coli BL21-CodonPlus (DE3)-RIL
T1 sequence (Q9NY33 1-726 limits assumed): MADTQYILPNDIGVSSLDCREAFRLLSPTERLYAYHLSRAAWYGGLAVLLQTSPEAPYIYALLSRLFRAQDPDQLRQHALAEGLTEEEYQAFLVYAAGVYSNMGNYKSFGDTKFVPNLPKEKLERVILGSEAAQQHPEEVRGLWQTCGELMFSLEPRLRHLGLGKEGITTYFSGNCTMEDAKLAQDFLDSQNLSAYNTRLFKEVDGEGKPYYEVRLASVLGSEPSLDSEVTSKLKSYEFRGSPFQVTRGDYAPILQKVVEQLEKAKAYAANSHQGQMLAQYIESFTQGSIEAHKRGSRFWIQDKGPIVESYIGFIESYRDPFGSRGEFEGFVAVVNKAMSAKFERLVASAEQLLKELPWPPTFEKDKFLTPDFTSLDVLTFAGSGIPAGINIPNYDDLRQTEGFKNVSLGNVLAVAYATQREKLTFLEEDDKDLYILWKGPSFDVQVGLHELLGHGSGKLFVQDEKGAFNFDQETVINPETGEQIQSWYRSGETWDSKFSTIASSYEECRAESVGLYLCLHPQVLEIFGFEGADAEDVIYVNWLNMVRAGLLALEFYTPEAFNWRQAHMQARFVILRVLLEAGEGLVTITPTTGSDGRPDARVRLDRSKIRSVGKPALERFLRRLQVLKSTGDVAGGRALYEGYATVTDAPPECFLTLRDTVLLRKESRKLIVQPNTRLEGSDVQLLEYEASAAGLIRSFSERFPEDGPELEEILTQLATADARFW
Nature of the assay: hDPP III enzyme activity assay (% inhibition and IC50), substrate Arg-Arg-2-naphthylamide. Conditions: for IC50: at least seven concentrations, nonlinear regression, three replicates; for log % inh. exp.: logarithm of % inhibition at 30 μmol L^–1; for inhibition at 30 µM: pH 7.4, 30 μmol L^–1 compound, recombinant hDPP III 0.75 nM, Arg-Arg-2-naphthylamide 40 μM, pH 7.4, 37 °C, average of three determinations ± SD. Format: biochemical. How it is done:
C-terminally truncated human DPP III was expressed and purified as described previously. In brief, C-terminal HIS-tagged recombinant human DPP III was expressed in E. coli BL21-CodonPlus (DE3)-RIL cells, Agilent (Santa Clara, CA, USA). Overexpression was induced by 0.25 mM isopropyl-b-D-1-thiogalactopyranoside (IPTG, Fermentas), and the cells were grown for 20 h at 18 °C and 130 rpm. Obtained bacterial cells were lysed by a combination of lysozyme lysis and sonication, then treated with DNase I and centrifuged at 4000× g for 15 min to precipitate the cell debris. The lysate was purified by affinity chromatography on a Ni-NTA column (5 mL prepacked His-trap FF) GE Healthcare (Chicago, IL, USA) using a buffer system with 50 mM Tris- HCl, pH = 8.0, 300 mM NaCl, and increasing imidazole concentrations: 10 mM for lysis, 20 mM for wash, and 300 mM for elution buffer. All hDPP III active fractions were pooled and incubated with TEV protease to remove the HIS-tag. Human DPP III was recovered using flow-through affinity chromatography (TEV protease is His-tagged), and additionally purified on a 16/60 Superdex-200 gel-filtration column GE Healthcare (Chicago, IL, USA). Fractions with hDPP III were desalted on PD-10 columns GE Healthcare (Chicago, IL, USA). Purified protein in 20 mM Tris-HCl buffer pH = 7.4 was stored at -80 °C until use. Recombinant hDPP III (0.75 nM) was preincubated with benzimidazole derivatives (30 μM) first for 10 min at 25 °C and then for 5 min at 37 °C in 50 mM Tris-HCl buffer, pH 7.4. The enzymatic reaction was started with Arg-[…]-naphthylamide (40 μM) as a substrate, and after the 15 min incubation at 37 °C in a water bath, the reaction was stopped, and the absorbance was measured using the spectrophotometric method described by Abramić et al.. All benzimidazole derivatives were prepared daily in dimethyl sulfoxide, and the resulting stock solutions (4 mM) were transparent, without turbidity or solid residue. […] Before the enzyme assay, stock solutions were diluted with 50 mM Tris-HCl buffer, pH 7.4. […] The percentage of enzyme inhibition under at least seven different concentration gradients was imported into GraphPad Prism 10.4.1 software to calculate IC50 values of the compounds using nonlinear regression analysis from the mean inhibitory value of three replicates. The relative occupancy of inhibition for compounds with the same substituent at position 6 of the benzimidazole core was defined as the sum of their % inh., expressed relative to their maximum achievable inhibition, which was set at 100.

Another assay has as its system H460. Also on record: method as in doi:10.5562/cca3531. Conditions: cited from earlier work.
The next assay has as its system HCT116. Also noted: method as in doi:10.5562/cca3531. Conditions: cited from earlier work.
The next assay relates to MCF-7. Also on record: method as in doi:10.5562/cca3531. The settings on record: cited from earlier work.

Consider `N[C@@H](Cc1ccc(O)cc1)C(=O)N[C@@H](Cc1ccccc1)C(=O)NO` [Tyr-Phe-NHOH] (HELM PEPTIDE1{Y.F.[ON[*:1]]}$$$$V2.0), for which the Ki (commonly the equilibrium dissociation constant of an inhibitor or competing ligand from its target) on hDPP III was 150 ± 40 nM.
In the case of `CCN(CC)c1ccc(-c2nc3ccc(C(=N)N)cc3[nH]2)c(O)c1` [a2, 5(6)-amidino-2-[4-(N,N-diethylamino)-2-hydroxyphenyl]benzimidazole hydrochloride], on human DPP III, the half-maximal inhibitory concentration (IC50) (commonly the concentration needed to halve the response being measured) is < 20 µM and 8.44 µM; the “log % inh. exp.” value is on record as 2.00; the inhibition – broadly, how much of the control response was suppressed – at 30 µM is no less than 90%.
Consider `N=C(N)c1ccc2nc(-c3ccc(-c4cccs4)s3)[nH]c2c1` [a4], for which, on human DPP III, the IC50 is < 20 µM and 8.34 µM; the “log % inh. exp.” value is listed as 2.00; the inhibition at 30 µM is no less than 90%.
On to `N=C(N)c1ccc2nc(-c3ccc(C(F)(F)F)cc3)[nH]c2c1` [a6], for which the antiproliferative activity entry with H460 is on record as “displayed antiproliferative activity”. The antiproliferative activity result in the assay on HCT116 is given as “displayed antiproliferative activity”. For the same molecule, on human DPP III, the IC50 is < 20 µM and 9.83 µM; the “log % inh. exp.” value turned out to be 1.99; the inhibition at 30 µM was no less than 90%. Also, in the assay on MCF-7, the antiproliferative activity result is “displayed antiproliferative activity”.
In the case of `c1ccc2c(c1)cc(-c1nc3cc(C4=NCCN4)ccc3[nH]1)c1ccccc12` [b2, 5(6)-(2-imidazolinyl)-2-(phenanthren-9-yl)-1H-benzo[d]imidazole], at human DPP III, the half-maximal inhibitory concentration (IC50) was < 20 µM and 11.1 µM; the “log % inh. exp.” value came to 2.00; the inhibition at 30 µM is no less than 90%.
As to `c1csc(-c2ccc(-c3nc4ccc(C5=NCCN5)cc4[nH]3)s2)c1` [b4], at human DPP III, the half-maximal inhibitory concentration (IC50) was < 20 µM and 4.98 µM; the “log % inh. exp.” value was determined as 2.00; the inhibition at 30 µM is no less than 90%.
For `FC(F)(F)c1ccc(-c2nc3ccc(C4=NCCN4)cc3[nH]2)cc1` [b6], the antiproliferative activity entry with H460 was “displayed antiproliferative activity”. Also, the antiproliferative activity result with HCT116 is recorded as “displayed antiproliferative activity”. Moreover, on human DPP III, the IC50 is < 20 µM and 8.18 µM; the “log % inh. exp.” value is 2.00; the inhibition at 30 µM is no less than 90%. Moreover, in the assay on MCF-7, the antiproliferative activity result is recorded as “displayed antiproliferative activity”.
On to `Oc1ccc(-c2nc3ccc(C4=NCCN4)cc3[nH]2)c(O)c1O` [b13, 5(6)-(4,5-Dihydro-1H-imidazol-3-ium-2-yl)-2-(2,3,4-trihydroxyphenyl)benzimidazole chloride], for which, on human DPP III, the half-maximal inhibitory concentration (IC50) is < 20 µM and 1.03 µM; the “log % inh. exp.” value is on record as 2.00; the inhibition at 30 µM is no less than 90%.
In the case of `c1ccc2c(c1)cc(-c1nc3cc(C4=NCCCN4)ccc3[nH]1)c1ccccc12` [c8], at human DPP III, the “log % inh. exp.” value is reported as 1.71 and the inhibition at 30 µM came out at 51.7 ± 0.2%.
